Source: the NIST ThermoML archive (doi:10.1016/j.fluid.2017.01.019)

Assay: xn = mol fraction of the nth substance listed
Conditions: 100 kPa, Liquid; for speed of sound: Frequency=3 MHz, Sing-around technique in a fixed-path interferometer; for viscosity: Falling or rolling sphere viscometry; for mass density: Vibrating tube method

CCOS(=O)(=O)[O-].CCn1cc[n+](C)c1 [1-ethyl-3-methylimidazolium ethyl sulfate] + CO
Conditions | mass density [kg/m3] | speed of sound [m/s] | viscosity [mPa·s]
293.15 K, x1 = 0.1067 | – | 1292.5 | –
293.15 K, x1 = 0.1996 | – | 1399.1 | –
293.15 K, x1 = 0.2919 | – | 1473.1 | –
293.15 K, x1 = 0.4021 | – | 1533.8 | –
293.15 K, x1 = 0.4918 | – | 1569.6 | –
293.15 K, x1 = 0.609 | – | 1606.4 | –
293.15 K, x1 = 0.7095 | – | 1632.8 | –
293.15 K, x1 = 0.8014 | – | 1652.9 | –
293.15 K, x1 = 0.904 | – | 1667.9 | –
293.15 K, x1 = 1 | – | 1682.3 | –
298.15 K, x1 = 0.1067 | 961.555 | – | 1.45
298.15 K, x1 = 0.1996 | 1042.5 | – | 3.84
298.15 K, x1 = 0.2919 | 1095.83 | – | 4.57
298.15 K, x1 = 0.4021 | 1138.91 | – | 7.83
298.15 K, x1 = 0.4918 | 1164.2 | – | 12.99
298.15 K, x1 = 0.609 | 1188.99 | – | 19.97
298.15 K, x1 = 0.7095 | 1204.69 | – | 31.61
298.15 K, x1 = 0.8014 | 1216.59 | – | 45.92
298.15 K, x1 = 0.904 | 1227.45 | – | 65.82
298.15 K, x1 = 1 | 1236.33 | – | 96.21
303.15 K, x1 = 0.1067 | 957.326 | 1278.1 | 1.35
303.15 K, x1 = 0.1996 | 1038.4 | 1386.3 | 3.29
303.15 K, x1 = 0.2919 | 1092.01 | 1459.8 | 4.15
303.15 K, x1 = 0.4021 | 1135.31 | 1522.6 | 7.09
303.15 K, x1 = 0.4918 | 1160.82 | 1556.9 | 11.38
303.15 K, x1 = 0.609 | 1185.52 | 1592.1 | 17.26
303.15 K, x1 = 0.7095 | 1201.31 | 1620.4 | 26.48
303.15 K, x1 = 0.8014 | 1213.11 | 1639.1 | 37.65
303.15 K, x1 = 0.904 | 1224.02 | 1655.7 | 53.03
303.15 K, x1 = 1 | 1232.93 | 1670 | 75.89
308.15 K, x1 = 0.1067 | 952.925 | 1263.8 | 1.26
308.15 K, x1 = 0.1996 | 1034.33 | 1372.7 | 2.8
308.15 K, x1 = 0.2919 | 1088.21 | 1446.5 | 3.78
308.15 K, x1 = 0.4021 | 1131.6 | 1509.8 | 6.42
308.15 K, x1 = 0.4918 | 1157.42 | 1544.4 | 10.02
308.15 K, x1 = 0.609 | 1182.08 | 1579.7 | 15.14
308.15 K, x1 = 0.7095 | 1198 | 1608.1 | 22.48
308.15 K, x1 = 0.8014 | 1209.7 | 1627 | 31.44
308.15 K, x1 = 0.904 | 1220.61 | 1643.6 | 43.71
308.15 K, x1 = 1 | 1229.57 | 1657.9 | 60.73
313.15 K, x1 = 0.1067 | 948.697 | 1249.6 | 1.17
313.15 K, x1 = 0.1996 | 1030.41 | 1359.3 | 2.47
313.15 K, x1 = 0.2919 | 1084.41 | 1433.5 | 3.48
313.15 K, x1 = 0.4021 | 1127.88 | 1497.1 | 5.85
313.15 K, x1 = 0.4918 | 1153.83 | 1531.8 | 8.91
313.15 K, x1 = 0.609 | 1178.56 | 1567.3 | 13.32
313.15 K, x1 = 0.7095 | 1194.76 | 1596 | 19.31
313.15 K, x1 = 0.8014 | 1206.29 | 1615 | 26.51
313.15 K, x1 = 0.904 | 1217.22 | 1631.6 | 36.28
313.15 K, x1 = 1 | 1226.21 | 1645.9 | 49.38
318.15 K, x1 = 0.1067 | 944.458 | 1235.4 | 1.09
318.15 K, x1 = 0.1996 | 1026.64 | 1345.8 | 2.23
318.15 K, x1 = 0.2919 | 1080.74 | 1420.5 | 3.21
318.15 K, x1 = 0.4021 | 1124.28 | 1484.5 | 5.34
318.15 K, x1 = 0.4918 | 1150.3 | 1519.3 | 7.96
318.15 K, x1 = 0.609 | 1175.06 | 1555 | 11.78
318.15 K, x1 = 0.7095 | 1191.48 | 1584 | 16.79
318.15 K, x1 = 0.8014 | 1202.9 | 1603.1 | 22.62
318.15 K, x1 = 0.904 | 1213.85 | 1619.7 | 30.46
318.15 K, x1 = 1 | 1222.87 | 1634.1 | 40.93
323.15 K, x1 = 0.1067 | 940.54 | 1221.4 | 1.02
323.15 K, x1 = 0.1996 | 1022.72 | 1332.3 | 1.95
323.15 K, x1 = 0.2919 | 1077.09 | 1407.6 | 2.96
323.15 K, x1 = 0.4021 | 1120.78 | 1471.9 | 4.85
323.15 K, x1 = 0.4918 | 1146.92 | 1506.8 | 7.08
323.15 K, x1 = 0.609 | 1171.65 | 1542.8 | 10.54
323.15 K, x1 = 0.7095 | 1188.29 | 1572.1 | 14.68
323.15 K, x1 = 0.8014 | 1199.51 | 1591.3 | 19.5
323.15 K, x1 = 0.904 | 1210.5 | 1607.9 | 25.98
323.15 K, x1 = 1 | 1219.54 | 1622.3 | 33.82
